# Results from patent US5750696A, “Dioxacycloalkane compound having renin-inhibitory activity” (Japan Tobacco Inc., priority 1992, dated 1998).
# What was measured:
# [1] = target: T1, renin activity in human plasma (Homo sapiens, UniProt P00797); test: Inhibitory action on renin activity in human plasma; format: biochemical; settings: 37° C., 1 hour, angiotensin I by radio immunoassay
# T1 construct: Human plasma (200 μl); from tissue; host or cells: human plasma
# T1 sequence (P00797 67-406): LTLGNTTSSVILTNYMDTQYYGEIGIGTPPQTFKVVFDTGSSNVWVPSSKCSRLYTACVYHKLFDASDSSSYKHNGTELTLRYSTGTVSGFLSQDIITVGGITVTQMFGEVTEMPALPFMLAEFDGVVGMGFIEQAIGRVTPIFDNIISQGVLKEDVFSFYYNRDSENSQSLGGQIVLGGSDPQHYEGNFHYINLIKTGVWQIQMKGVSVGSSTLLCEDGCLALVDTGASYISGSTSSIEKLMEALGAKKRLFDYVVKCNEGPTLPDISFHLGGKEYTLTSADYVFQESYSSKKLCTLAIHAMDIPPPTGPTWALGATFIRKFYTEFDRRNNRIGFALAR
# Protocol: (§1) In the following, the test results of the inhibitory action of the dioxacycloalkane compound of the above-mentioned formula [1] of the present invention, on the renin activity in human plasma and the hypotensive action on nonanesthetized marmosets under salt intake control are shown.
# Inhibitory action on renin activity in human plasma
# Human plasma (200 μl), a pH adjusting solution (20 μl), PMSF (10 μl), and a solution (10 μl) of the dioxacycloalkane compound of the present invention in dimethyl sulfoxide or dimethyl sulfoxide (10 μl ) as a control were placed in plastic tubes for RIA. Two sets of these were prepared and one set of them was incubated at 37° C. for 1 hour and the other was incubated at 4° C. for 1 hour.
# After incubation, the amount of angiotensin I was quantitatively assayed by the radio immunoassay method. The renin activity in plasma was calculated by subtracting the amount of angiotensin I in the reaction mixture incubated at 4° C. from that in the reaction mixture incubated at 37° C. Percent inhibitory activity was calculated from the following formula [formula] The molar concentration necessary for 50% inhibition of activity (IC5 0) was determined from the inhibitory activity value obtained by the above calculating formula. [RENIN RIABEADS KIT (Dinabot Ltd.) was used for the measurement.]
# [2] = test system: non-anesthetized marmosets; test: Hypotensive action on non-anesthetized marmosets under salt intake control; format: in vivo; settings: 10 mg/kg, po, low salt diet, tail-cuff method, relative to value before administration
# From the text: as §1
# Hypotensive action on non-anesthetized marmosets under salt intake control
# Non-anesthetized marmosets (weighing 310-370 g) raised on a low salt diet (containing 0.02% salt, 1/10 of the normal diet) for a week were orally administered with the compound (10 mg/kg) of Example 1 dissolved in 0.1 M citric acid, at the ratio of 2 ml/kg. The blood pressure was measured with the lapse of time before and after the administration by the tail-cuff method, and the hypotensive action was calculated in percentage relative to the value measured before the administration.
IC50 [1] [nM],Compound,other results
7.8,"CCN(CC)C(=O)N[C@@H](Cc1ccccc1)C(=O)N(C)[C@@H](Cc1c[nH]cn1)C(=O)N[C@@H](CC1CCCCC1)[C@@H](O)C[C@@H]1OCOC1(C)C [Example 10, (4S)-4-[(2S,3S)-4-cyclohexyl-2-hydroxy-3-[[Nα-methyl-N α-[N-(diethylamino)carbonyl-L-phenylalanyl]-L-histidyl]amino]butyl]-5,5-dimethyl-1,3-dioxolane]",
13,"CN(C(=O)[C@H](Cc1ccccc1)NC(=O)N1CCCCC1)[C@@H](Cc1c[nH]cn1)C(=O)N[C@@H](CC1CCCCC1)[C@@H](O)C[C@@H]1OC(C)(C)OC1(C)C [Example 11, (4S)-4-[(2S,3S)-4-cyclohexyl-2-hydroxy-3-[[Nα-methyl-N α-(N-piperidinocarbonyl-L-phenylalanyl)-L-histidyl]amino]butyl]-2,2,5,5-tetramethyl-1,3-dioxolane]",
4,"CN(C(=O)[C@H](Cc1ccccc1)NC(=O)N1CCCCC1)[C@@H](Cc1c[nH]cn1)C(=O)N[C@@H](CC1CCCCC1)[C@@H](O)C[C@@H]1OC(c2ccccc2)OC1(C)C (stereo partly drawn) [Example 12, (4S)-4-[(2S,3S)-4-cyclohexyl-2-hydroxy-3-[[Nα-methyl-N α-(N-piperidinocarbonyl-L-phenylalanyl)-L-histidyl]amino]butyl]-5,5-dimethyl-2-phenyl-1,3-dioxolane]",

# Continued, compound first:
Compound,IC50 [1] [nM],other results
"CN(C(=O)[C@H](Cc1ccccc1)NS(=O)(=O)N1CCCCC1)[C@@H](Cc1c[nH]cn1)C(=O)N[C@@H](CC1CCCCC1)[C@@H](O)C[C@@H]1OCOC1(C)C [Example 6, (4S)-4-[(2S,3S)-4-cyclohexyl-2-hydroxy-3-[[Nα-methyl-N α-(N-piperidinosulfonyl-L-phenylalanyl)-L-histidyl]amino]butyl]-5,5-dimethyl-1,3-dioxolane]",11,
"CC1(C)OCO[C@H]1C[C@H](O)[C@H](CC1CCCCC1)NC(=O)[C@H](Cc1c[nH]cn1)NC(=O)[C@H](Cc1ccccc1)OC(=O)N1CCCCC1 [Example 3, (4S)-4-[(2S,3S)-4-cyclohexyl-2-hydroxy-3-[[Nα-[(2S)-3-phenyl-2-piperidinocarbonyloxypropionyl]-L-histidyl]amino]butyl]-5,5-dimethyl-1,3-dioxolane]",7,
"CN(C(=O)[C@H](Cc1ccccc1)NC(=O)N1CCCCC1)[C@@H](Cc1c[nH]cn1)C(=O)N[C@@H](CC1CCCCC1)[C@@H](O)C[C@H]1OCOC1(C)C [Example 2, (4R)-4-[(2S,3S)-4-cyclohexyl-2-hydroxy-3-[[Nα-methyl-N α-(N-piperidinocarbonyl-L-phenylalanyl)-L-histidyl]amino]butyl]-5,5-dimethyl-1,3-dioxolane]",21,
"CSC[C@H](NC(=O)[C@H](Cc1ccccc1)OC(=O)N1CCN(C)CC1)C(=O)N[C@@H](CC1CCCCC1)[C@@H](O)C[C@@H]1OCOC1(C)C [Example 5, (4S)-4-[(2S,3S)-4-cyclohexyl-2-hydroxy-3-[[S-methyl-N-[(2S)-3-phenyl-2-(4-methylpiperazinyl)carbonyloxypropionyl]-L-cysteinyl]amino]butyl]-5,5-dimethyl-1,3-dioxolane]",14,
"CN(C(=O)[C@H](Cc1ccccc1)NC(=O)N1CCCCC1)[C@@H](Cc1c[nH]cn1)C(=O)N[C@@H](CC1CCCCC1)[C@@H](O)C[C@@H]1OCOC1(C)C [Example 1, (4S)-4-[(2S,3S)-4-cyclohexyl-2-hydroxy-3-[[Nα-methyl-N α-(N-piperidinocarbonyl-L-phenylalanyl)-L-histidyl]amino]butyl]-5,5-dimethyl-1,3-dioxolane]",0.9,Hypotensive action (%) 0.5 hr later ([2]; 0.5 hr later): 10%; Hypotensive action (%) 1 hr later ([2]; 1 hr later): 12%; Hypotensive action (%) 3 hrs later ([2]; 3 hrs later): 10%; Hypotensive action (%) 5 hrs later ([2]; 5 hrs later): 10%; Hypotensive action (%) 7 hrs later ([2]; 7 hrs later): 3%
"CC1CCN(C(=O)N[C@@H](Cc2ccccc2)C(=O)N(C)[C@@H](Cc2c[nH]cn2)C(=O)N[C@@H](CC2CCCCC2)[C@@H](O)C[C@@H]2OCOC2(C)C)CC1 [Example 9, (4S)-4-[(2S,3S)-4-cyclohexyl-2-hydroxy-3-[[Nα-methyl-N α-[N-(4-methylpiperidino)carbonyl-L-phenylalanyl]-L-histidyl]-amino]butyl]-5,5-dimethyl-1,3-dioxolane]",3,
"CC1(C)OCO[C@H]1C[C@H](O)[C@H](CC1CCCCC1)NC(=O)[C@H](Cc1c[nH]cn1)NC(=O)[C@H](Cc1ccccc1)NC(=O)N1CCCCC1 [Example 4, (4S)-4-[(2S,3S)-4-cyclohexyl-2-hydroxy-3-[[N α-(N-piperidino-carbonyl-L-phenylalanyl)-L-histidyl]amino]butyl]-5,5-dimethyl-1,3-dioxolane]",1.8,
